The text below walks through data of PubChem BioAssay (NCI).

What all share (experiment): growth of human tumour cells (NCI), 48 h
For assay [1], the system named is HCT-116 colon.
Assay [2] has as its system 786-0 renal.
Assay [3] concerns SNB-19 CNS.
Assay [4] relates to OVCAR-4 ovarian.
Assay [5] relates to UACC-62 melanoma.
Assay [6] relates to CAKI-1 renal.
Assay [7] has as its system NCI-H460 lung.
Assay [8] deals with SK-MEL-28 melanoma.
Assay [9] concerns NCI-H522 lung.
The subject of assay [10] is K-562 leukemia.

Each structure is given as a SMILES string.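 Following 48 hours of exposure in 96-well plates, responses at five concentrations were used to interpolate endpoints linearly. Here, GI50 denotes the concentration required for 50% inhibition of growth. TGI marks complete inhibition of growth.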

As to `O=C(Oc1cccnc1)c1ccsc1Nc1ccnc(C(F)(F)F)c1`, the GI50 in assay [1] was 3.95 µM; in assay [2], 53 µM; in assay [3], 20.7 µM; in assay [4], 5.21 µM; in assay [5], 44.8 µM; in assay [6], 3.82 µM. Besides, the GI50 in assay [7] was 17.7 µM; in assay [8], 6.28 µM; in assay [9] it was 2.36 µM; in assay [10], 3.74 µM. In addition, the TGI in assay [1], in [2], in assay [3], in assay [4], in assay [5] and in assay [6] was > 100 µM in each case. In addition, the TGI in assay [7] was > 100 µM; in [8], 39.9 µM; in [9] it was 8.36 µM; in [10], > 100 µM.
`CCn1c2ccccc2c2cc(/C=C(/C#N)C(N)=O)ccc21`: the GI50 was 3.71 µM in assay [1]; 10.6 µM in assay [2]; 10.2 µM in [3]; 6.54 µM in assay [4]; 1.91 µM in [5]; 5.53 µM in assay [6]. Further, the GI50 is 1.67 µM in assay [7], 40.1 µM in assay [8], 11.7 µM in [9] and 4.49 µM in assay [10]. The TGI in assay [1] is > 52.4 µM; in [2], > 100 µM; in assay [3], > 87.8 µM; in assay [4], > 100 µM; in assay [5], 7.65 µM; in assay [6] it was > 77.9 µM. Moreover, the TGI in assay [7] was 13.3 µM; in [8], > 100 µM; in [9], > 100 µM; in assay [10], > 100 µM.
As to `COc1ccc2cc(-c3c(-c4ccncc4)nc(-c4ccc(S(C)=O)cc4)n3C)ccc2c1` (stereo not given), the GI50 was 19.1 µM in assay [1]; 16.7 µM in assay [2]; > 20.8 µM in assay [3]; 20.6 µM in [4]; 21 µM in assay [5]; 19.4 µM in assay [6]. Besides, the GI50 was 24.8 µM in assay [7], 24.2 µM in [8], > 18.5 µM in [9] and 15.6 µM in [10]. The TGI in [1], in assay [2], in assay [3], in [4], in assay [5] and in assay [6] was > 25 µM each time. For the same compound, the TGI in assay [7], in assay [8], in assay [9] and in assay [10] was > 25 µM in each case.
For `CN1CCC(n2cnc(-c3ccc(F)cc3)c2-c2ccnc(N)n2)CC1`, the GI50 is 8.19 µM in assay [1]; 11.6 µM in [2]; 10.3 µM in assay [3]; 7.04 µM in assay [4]; 14.1 µM in assay [5]; 7.63 µM in assay [6]. Moreover, the GI50 in assay [7] is 7.01 µM; in assay [8], > 23.8 µM; in assay [9] it was 8.57 µM; in assay [10], 11.6 µM. The TGI is > 25 µM in [1]; > 25 µM in assay [2]; > 25 µM in assay [3]; > 25 µM in [4]; > 25 µM in assay [5]; > 24.1 µM in assay [6]. Further, the TGI in [7], in [8], in [9] and in [10] was > 25 µM each time.
In the case of `CN1COc2c(n(C)c(=O)[nH]c2=O)C1`, the TGI in assay [1] was > 100 µM; in assay [2], > 100 µM; in assay [3], > 100 µM; in assay [4], > 100 µM; in [5], > 100 µM; in assay [6] it was > 68.3 µM. The TGI in [7], in assay [8], in [9] and in [10] was > 100 µM throughout.
With `N/N=C1\CC(=O)NC(=O)N1`, the TGI in assay [1], in assay [2], in assay [3], in assay [4], in assay [5] and in assay [6] was > 100 µM in each case. Also, the TGI in assay [7], in assay [8], in assay [9] and in [10] was > 100 µM each time.
With `C#CCOc1cccc(Nc2ncnc3c(NC(=O)CCl)cccc23)c1`, the GI50 is 18.1 µM in assay [1]; 18.7 µM in assay [2]; 33.9 µM in assay [3]; 37.1 µM in assay [4]; 27 µM in assay [5]; 15.8 µM in assay [6]. Further, the GI50 was 23.7 µM in assay [7], 36.4 µM in [8], 13.6 µM in [9] and 17.5 µM in [10]. Besides, the TGI in assay [1] was 42.1 µM; in [2], 37.9 µM; in assay [3] it was > 100 µM; in [4] it was > 100 µM; in assay [5], > 100 µM; in assay [6], 30.7 µM. For the same compound, the TGI in [7] was 56 µM; in assay [8], > 100 µM; in assay [9], 29.3 µM; in assay [10], 71.7 µM.
As for `Cc1c(C2=C(c3cn(C)c4ccccc34)C(=O)NC2=O)c2ccccc2n1C`, the GI50 was 1.38 µM in assay [1]; 3.56 µM in assay [2]; > 25 µM in [3]; 9.22 µM in assay [4]; 1.95 µM in assay [5]; 1.81 µM in [6]. Also, the GI50 in assay [7] was 1.29 µM; in assay [8], > 22.3 µM; in [9], 0.969 µM; in assay [10] it was 1.21 µM. Also, the TGI in assay [1], in assay [2], in assay [3], in assay [4], in assay [5] and in [6] was > 25 µM in each case. Further, the TGI in assay [7], in [8], in [9] and in assay [10] was > 25 µM in each case.
